Data reported in US7972645B2, “Dioscorea extracts for enhancing immune system” (Academia Sinica, priority 2003, dated 2011).

Tested on: NF-κB-inducible ELAM-1 composite promoter
Assay: NF-κB-inducible ELAM-1 composite promoter reporter (SEAP) assay in transfected B16 melanoma cells
Type: cell-based
Settings: Polymyxin B 400 U
Description: Briefly, B16 melanoma cells were transfected with a vector carrying the human secreted embryonic alkaline phosphatase (SEAP) gene, whose expression is under the control of a NF-κB-inducible ELAM-1 composite promoter, using a standard method for reporter (SEAP) assay. B16 melanoma cells were transfected with the NF-kB-inducible reporter plasmid pNiFty-SEAP (InvivoGen) in the presence of lipofectin (Invitrogen) for 24 hours. The SEAP secreted into medium was measured according to the manufacturer's instructions (Phospha-Light™ System, Applied Biosystems).
The transfected cells were then incubated with DsCE-I before the chemiluminescent reporter gene assays were conducted. It was known that LPS increased the activity of NF-κB and p38MAPK was involved in the LPS-induced activation. Therefore, LPS (0.1 μg/ml) was used as a positive control (Group A) and the corresponding […] was normalized as 100%. To illustrate the specificity, the effects of inhibitors of the LPS-induced activation were also examined. These inhibitors included SB203580 (“SB,” a p38MAPK inhibitor), PDTC (“PD,” a NF-κB inhibitor), and Polymyxin B (“PB,” an LPS-binding antibiotic). The solvent used to prepare the reagents was used as a negative control (Group J).

Polymyxin B
Inhibition of DsCE-I-induced activation (in words) (DsCE-I 100 μg/ml): only partially inhibited | Inhibition of LPS-induced activation (in words) (LPS 0.1 μg/ml): inhibited LPS-induced activation completely
